Results published in patent US20110294722A1, “ANTIMICROBIAL PEPTIDES” (priority 2008, published 2011).
No end group written: not given here.

Legend:
Cladosporium herbarum = assay: In-vitro inhibition assay (MIC), Example 2; format: cell-based; details: visual screening
Protocol: (§1) In-vitro inhibition assays were performed in sterile flat-bottom 96-well plates (Greiner bio-one, Frickenhausen). Antimicrobial peptides were dissolved in 0.01% acetic acid containing 0.2% BSA (500 μg/ml), filter sterilized and stored at −20° C. For inhibition assays dilutions of peptides ranging from 5 to 200 μg/ml were prepared and 10 μl (antibacterial assay) or 20 μl (antifungal assay) of each concentration was loaded per well.
(§2) Spores of fungi were collected by water washes of sporulating cultures grown on 2% malt extract agar and spore concentration was determined by microscopy. The concentration of the spores was adjusted to 1.5-2×10^3 spores/ml in 2% malt extract medium and 80 μl of fungal spores were added per well. The final peptide concentrations used in the fungal inhibition assays were […]. After overnight incubation at room temperature the plate were put on a rotary shaker (300 rpm) for further two days to ensure consistantly growth. Antifungal effects of the peptides were determined by a microplate reader (Alternaria, Fusarium) at OD590 nm or by visual screening of the plates (Botrytis, Cladosporium).
(§3) The lowest peptide concentration leading to complete inhibition of bacterial growth or spore germination/mycelial growth (minimal inhibition concentration, MIC) was determined for each organism-peptide combination. For each peptide concentration two identical inhibition assays were performed.

Botrytis cinerea = assay: In-vitro inhibition assay (MIC), Example 2; format: cell-based; details: visual screening
Protocol: as §1, §2, §3

Alternaria alternata = assay: In-vitro inhibition assay (MIC), Example 2; format: cell-based; details: OD590 nm
Protocol: as §1, §2, §3

Xanthomonas vesicatoria = details: Xanthomonas vesicatoria; overnight 25° C.
[1] = tested on: Pseudomonas syringae pv. tomato; details: Pseudomonas syringae pv. tomato; overnight 25° C.
phytopathogenic fungi = assay: Antifungal inhibition assay, summary statement; format: cell-based; details: summary of Table 1
Protocol: as §1, §2
The lowest peptide concentration leading to complete inhibition of bacterial growth or spore germination/mycelial growth (minimal inhibition concentration, MIC) was determined for each organism-peptide combination. […]

[2] = tested on: Pseudomonas syringae pv. syringae; details: Pseudomonas syringae pv. syringae; overnight 25° C.
[3] = tested on: Pectobacterium carotovorum sub. carotovorum; details: Pectobacterium carotovorum sub. carotovorum; overnight 25° C.
Pseudomonas corrugata = details: Pseudomonas corrugata; overnight 25° C.
[4] = tested on: Clavibacter michiganensis sub. michiganensis; details: overnight 25° C.

“SP1-D: Polypeptide SP1 (RKKRLKLLKRLV) with D-amino acids incorporated; D positions marked bold/italic in b61, not recoverable (also: D-amino acids at unstated positions)” was tested, and the “Minimal inhibition concentration (MIC) for complete inhibition of spore germination/mycelial growth” value (Cladosporium herbarum) was 20 µg/mL, the “Minimal inhibition concentration (MIC) for complete inhibition of spore germination/mycelial growth” value (Botrytis cinerea) was over 40 µg/mL and the “Minimal inhibition concentration (MIC) for complete inhibition of spore germination/mycelial growth” value (Alternaria alternata) was 20 µg/mL. For the same substance, the “Minimal inhibition concentration (MIC) for complete inhibition of bacterial growth” value (Xanthomonas vesicatoria) was 40 µg/mL, the “Minimal inhibition concentration (MIC) for complete inhibition of bacterial growth” value [1] was 5 µg/mL and the “Efficacy against phytopathogenic fungi” value (phytopathogenic fungi) was “high efficacy against phytopathogenic fungi”. The “Minimal inhibition concentration (MIC) for complete inhibition of bacterial growth” value [2] was 5 µg/mL, the “Minimal inhibition concentration (MIC) for complete inhibition of bacterial growth” value [3] was over 40 µg/mL and the “Minimal inhibition concentration (MIC) for complete inhibition of bacterial growth” value (Pseudomonas corrugata) was 20 µg/mL. For the same substance, the “Minimal inhibition concentration (MIC) for complete inhibition of bacterial growth” value [4] was 40 µg/mL.
